target: T1, small-conductance Ca2+-activated K+ channels (SK channels, subtype 2) (Homo sapiens, UniProt Q9H2S1); experiment: whole-cell patch-clamp of ionic current through SK2 channels in HEK293 cells (SC100); type: cell-based; details: concentration that increases the basal current by 100%; HEK293 cells expressing SK2 channels
T1 construct: expressed in transfected cells; host or cells: HEK293
Outline: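 SC100, the concentration doubling basal current (a 100% increase), was taken from SK2 currents recorded by whole-cell patch-clamp in SK2-expressing HEK293 cells.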

Row | SC100 | Compound
1 | + (+ means >1 uM) | COC(=O)N1CCC1COc1cc(NC2CCC(F)(F)CC2)nc(-n2ccc(CF)n2)n1 (stereo not shown) [Compound 306, methyl 2-(((6-((4,4-difluorocyclohexyl)amino)-2-(3-(fluoromethyl)-1H-pyrazol-1-yl)pyrimidin-4-yl)oxy)methyl)azetidine-1-carboxylate]
2 | + (+ means >1 uM) | Cc1cc(C)n(-c2nc(NC3CCC(F)(F)CC3)cc(N3CCOC(C(N)=O)C3)n2)n1 (stereo not shown) [Compound 115, 4-(6-((4,4-difluorocyclohexyl)amino)-2-(3,5-dimethyl-1H-pyrazol-1-yl)pyrimidin-4-yl)morpholine-2-carboxamide]
3 | +++ (+++ means <200 nM) | Cc1cc(NC2CCC(F)(F)CC2)nc(-n2cc(C)c(C(F)F)n2)n1 [Compound 246, N-(4,4-difluorocyclohexyl)-2-(3-(difluoromethyl)-4-methyl-1H-pyrazol-1-yl)-6-methylpyrimidin-4-amine]
4 | + (+ means >1 uM) | Cc1cc(C)n(-c2nc(NC3CCCC(F)(F)C3)cc(C(N)=O)n2)n1 (stereo not shown) [Compound 350, 6-((3,3-difluorocyclohexyl)amino)-2-(3,5-dimethyl-1H-pyrazol-1-yl)pyrimidine-4-carboxamide]

Further lines, the molecule ahead of its results:

Row | Compound | SC100
5 | Cc1cc(C)n(-c2cc(NCc3ncco3)cc(NC3CCC(F)(F)CC3)n2)n1 [Compound 259, N2-(4,4-difluorocyclohexyl)-6-(3,5-dimethyl-1H-pyrazol-1-yl)-N4-(oxazol-2-ylmethyl)pyridine-2,4-diamine] | + (+ means >1 uM)
6 | Cc1cc(C)n(-c2nc(NC3CCC(F)(F)CC3)cc(C(C)(C)O)n2)n1 [Compound 152, 2-(6-((4,4-difluorocyclohexyl)amino)-2-(3,5-dimethyl-1H-pyrazol-1-yl)pyrimidin-4-yl)propan-2-ol] | + (+ means >1 uM)
7 | Cc1cc(C)n(-c2nc(NC3CCC(F)(F)CC3)cc(NC(C)C(N)=O)n2)n1 (stereo not shown) [Compound 109, 2-((6-((4,4-difluorocyclohexyl)amino)-2-(3,5-dimethyl-1H-pyrazol-1-yl)pyrimidin-4-yl)amino)propanamide] | + (+ means >1 uM)
8 | CC(C)(C)C(=O)N1CC(Oc2cc(NC3CCC(F)(F)CC3)nc(-c3nc(C(F)(F)F)cs3)n2)C1 [Compound 322, 1-(3-((6-((4,4-difluorocyclohexyl)amino)-2-(4-(trifluoromethyl)thiazol-2-yl)pyrimidin-4-yl)oxy)azetidin-1-yl)-2,2-dimethylpropan-1-one] | ++ (++ means 200 nM-1000 nM)
9 | CC1CN(c2cc(NC3CCC(F)(F)CC3)nc(-n3ccc(CF)n3)n2)CC(C)O1 (stereo not shown) [Compound 294, N-(4,4-difluorocyclohexyl)-6-(2,6-dimethylmorpholino)-2-(3-(fluoromethyl)-1H-pyrazol-1-yl)pyrimidin-4-amine] | ++ (++ means 200 nM-1000 nM)
10 | CC(C)C(=O)N1CC(Oc2cc(NC3CCC(F)(F)CC3)nc(-c3nc(CF)cs3)n2)C1 [Compound 342, 1-(3-((6-((4,4-difluorocyclohexyl)amino)-2-(4-(fluoromethyl)thiazol-2-yl)pyrimidin-4-yl)oxy)azetidin-1-yl)-2-methylpropan-1-one] | ++ (++ means 200 nM-1000 nM)

same assay, conditions: whole-cell patch-clamp, HEK293 cells expressing SK2 channels; concentration that increases the basal current by 100%

Row | SC100 (μM) | Compound
11 | ++ (++ means 200 nM-1000 nM) | Cc1csc(-c2nc(NC3CCC(F)(F)CC3)cc(OCCNS(C)(=O)=O)n2)n1 [IN11059-052-P1]
12 | + (+ means >1 uM) | COCc1cc(-n2ccc(C(F)(F)F)n2)nc(NC2CCC(F)(F)CC2)n1 [NSSy6674, N-(4,4-difluorocyclohexyl)-4-(methoxymethyl)-6-(3-(trifluoromethyl)-1H-pyrazol-1-yl)pyrimidin-2-amine]
13 | + (+ means >1 uM) | Cc1cc(C)n(-c2cc(N3CCOCC3)nc(NC3CCC(F)(F)CC3)n2)n1 [NSSy6389]
14 | ++ (++ means 200 nM-1000 nM) | Cc1csc(-c2nc(NC3CCC(F)(F)CC3)cc(C(C)F)n2)n1 (stereo not shown) [IN10876-092-P1, N-(4,4-difluorocyclohexyl)-6-(1-fluoroethyl)-2-(4-methylthiazol-2-yl)pyrimidin-4-amine]
15 | ++ (++ means 200 nM-1000 nM) | Cc1cc(C)n(-c2nc(NC3CCC(F)(F)CC3)cc(N3CCOC(COC(C)C)C3)n2)n1 (stereo not shown) [IN10964-008-P1]
16 | + (+ means >1 uM) | Cc1csc(-c2ncc(CO)c(NC3CCC(F)(F)CC3)n2)n1 [IN11238-040-P1, (4-((4,4-difluorocyclohexyl)amino)-2-(4-methylthiazol-2-yl)pyrimidin-5-yl) methanol]

The next lines start with the molecule.

Row | Compound | SC100 (μM)
17 | COc1nn(-c2nc(NC3CCC(F)(F)CC3)cc(N3CCOCC3)n2)cc1F [IN11216-073-P1] | +++ (+++ means <200 nM)
18 | Cc1csc(-c2cc(NC(=O)OC(C)(C)C)cc(NC3CCC(F)(F)CC3)n2)n1 [IN11083-048-P1, tert-butyl (2-((4,4-difluorocyclohexyl)amino)-6-(4-methylthiazol-2-yl)pyridin-4-yl) carbamate] | +++ (+++ means <200 nM)
19 | Cc1cc(C)n(-c2cc(NC3CCC(F)(F)CC3)cc(N3CCOCC3)c2)n1 [IN10963-024-P1, N-(4,4-difluorocyclohexyl)-3-(3,5-dimethyl-1H-pyrazol-1-yl)-5-morpholinoaniline] | + (+ means >1 uM)
20 | Cc1cc(NC2CCC(F)(F)CC2)cc(-c2nc(C)cs2)c1 [IN11063-086-P2, N-(4,4-difluorocyclohexyl)-3-methyl-5-(4-methylthiazol-2-yl) aniline] | + (+ means >1 uM)
21 | Cc1cc(NC2CCC(F)(F)CC2)nc(-n2ccc(OCc3ccccc3)n2)n1 [IN11079-066-P1, 2-(3-(benzyloxy)-1H-pyrazol-1-yl)-N-(4,4-difluorocyclohexyl)-6-methyl pyrimidin-4-amine] | + (+ means >1 uM)
22 | COCc1cc(NC2CC(F)(F)C2)nc(-n2nc(C)cc2C)n1 [IN11108-038-P1, N-(3,3-difluorocyclobutyl)-2-(3,5-dimethyl-1H-pyrazol-1-yl)-6-(methoxymethyl)pyrimidin-4-amine] | + (+ means >1 uM)
23 | COCc1cc(NC2CCC(F)(F)CC2)nc(-n2ccc(C(F)(F)F)n2)n1 [IN11053-071-P1, N-(4,4-difluorocyclohexyl)-6-(methoxymethyl)-2-(3-(trifluoromethyl)-1H-pyrazol-1-yl)pyrimidin-4-amine] | + (+ means >1 uM)
24 | Cc1cc(NC2CCC(F)(F)CC2)nc(-c2nc(C3CC3)cs2)n1 [IN11147-062-P1, 2-(4-cyclopropylthiazol-2-yl)-N-(4,4-difluorocyclohexyl)-6-methylpyrimidin-4-amine] | + (+ means >1 uM)
25 | Cc1csc(-c2cc(OCc3nnc(C)o3)cc(NC3CCC(F)(F)CC3)n2)n1 [NSSy5694] | +++ (+++ means <200 nM)
26 | Cc1ccn(-c2nc(COc3ccc(C#N)cn3)cc(NC3CCC(F)(F)CC3)n2)n1 [IN11053-013-P1] | ++ (++ means 200 nM-1000 nM)
27 | Cc1ccn(-c2cc(OCc3nnc(C)o3)cc(NC3CCC(F)(F)CC3)n2)n1 [NSSy5681] | + (+ means >1 uM)
28 | CSc1cc(NC2CCC(F)(F)CC2)nc(-n2ccc(C)n2)n1 [IN11059-070-P1] | ++ (++ means 200 nM-1000 nM)
29 | N#Cc1ccn(-c2nc(NC3CCC(F)(F)CC3)cc(N3CC4(COC4)C3)n2)n1 [NSSy5847] | + (+ means >1 uM)
30 | Cc1csc(-c2cc(N3CCOCC3)cc(NC3CCC(F)CC3)n2)n1 (stereo not shown) [NSSy5688] | ++ (++ means 200 nM-1000 nM)
31 | Cc1ccn(-c2nc(NC3C(C)CCCC3C)cc(C(C)O)n2)n1 (stereo not shown) [IN10881-060-P1] | + (+ means >1 uM)

Reference: patent US10774064B2 (Cadent Therapeutics, Inc., priority 2016, dated 2020)
